Values of other authors in US20030133995A1, “Ingestible capsaicin neutralizer” (priority 2002, published 2003).

Assays:
[1] = pure form
[2] = pure capsaicin
tongue = details: pure form diluted one hundred thousand fold

## COc1cc(CNC(=O)CCCC/C=C/C(C)C)ccc1O [capsaicin, N-Vanillyl-8-methyl-6-(E)-noneamide]
[1]; aqueous solutions
  solubility in aqueous solutions: not very soluble
[1]; fats, oils and alcohols
  solubility in fats, oils and alcohols: quite soluble
[2]
  heat sensation: approximately 16,000,000 Scoville units
tongue
  blistering of the tongue: can cause blistering of the tongue
